Experimental data taken from patent US20230339919A1, “BENZO OXYGEN-CONTAINING HETEROCYCLIC COMPOUNDS AND MEDICAL APPLICATION THEREOF” (AB PHARMA LTD., priority 2020, published 2023).
Entries after “also recorded” stand apart in the source; their conditions may differ. Read-outs that look alike come from different tables or passages of the source.

Assays:
[1] = target: BSEP bile salt transporter (Homo sapiens, UniProt O95342); assay: BSEP (Bile Salt Export Pump) assay, taurocholic acid uptake by BSEP vesicles, LC/MS/MS; format: in vitro ADME
Excerpt: In this experiment, we performed a preliminary study on the inhibition of the uptake of the substrate taurocholic acid (TCA) by the BSEP bile salt transporter by LC/MS/MS. The BSEP protein microvesicles with reverse uptake ability were obtained by transfecting Hi5 cells with the BSEP gene, which is capable of TCA uptake and uptake of taurocholic acid. The principle of this experiment is to perform substrate uptake by BSEP protein microcapsules in the presence of energy ATP, the substrate TCA and the candidate compound to be tested, after a certain transit time, the energy, substrate and candidate compound were completely washed out of the microvesicle, and the absorbed substrate TCA was released by lysis of the microvesicle. […] The starting concentration of the sample was 100 mM, diluted in 2-fold gradient with Bravo apparatus, with 11 concentration gradients; the lowest point concentration was 97.65 μM. • 3. Control compound (Glyburide) starting at 20 mM, diluted in 2-fold gradient with Bravo instrument, with 11 concentration gradients; the lowest point concentration was 19.53 μM. • 4. 300 nl of compound was transferred to the middle plate using the ECHO autosampler. • 5. Positive control (HPE) wells and negative control (ZPE) wells were also transferred 300 nl DMSO each. […] Add 14.7 μl of ATP buffer to the corresponding wells of the compound and ZPE, respectively. • 2. Add 14.7 μl of AMP buffer to the corresponding wells of the HPE. • 3. Shake the plate at 25 degrees C. for 10 minutes. • 4. […] Immediately add 5 ul of 0.5M EDTA solution to all wells, and then add 65 μl of Buffer B. All reactions are completed. • 6. Transfer […] of liquid from the end of reaction compound plate to the filter plate using the spiking apparatus. • 7. After placing the liquid receiving plate under the filter plate, use a centrifuge to remove the liquid and discard the liquid received in the receiving plate. • 8. Add 90 μl of buffer B to the filter plate and repeat step 7. Repeat steps 7 and 8 to wash the filter plate a total of three times. • 9. Let the filter plate dry overnight. • 10. Add 81 μl of 80% methanol/water solution to the filter plate the next day. • 11. Apply membrane to the filter plate and vibrate the plate for 15 minutes. • 12. Place a new liquid receiver plate under the filter plate and centrifuge for 5 min to filter all the liquid from the filter plate into the receiver plate. • 13. Add 13.5 μl of internal standard solution to each well of the liquid receiver plate and seal the plate with a sealing film. • 14. Using LC/MS/MS, detect the content of taurocholic acid in the receiver plate.

hERG = hERG (Homo sapiens, UniProt Q12809); assay: hERG assay
GPR40 = target: T1, GPR40 (Homo sapiens, UniProt O14842); assay: GPR40 agonist activity, FLIPR calcium assay in CHO-K1/GPR40 cells; format: cell-based
T1 construct: expressed in transfected cells; host or cells: CHO-K1
Experimental: Inoculate CHO-K1/GPR40 cells in 384-well plates at a density of 10,000 cells/well. Cells were incubated at 37° C. for 24 hours in a 5% CO2 incubator. After the experiment, discard the cell culture medium, quickly add […] of 1× FLIPR® Calcium 6 dye containing 2.5 mM/Probenecid to each well and incubate at 37° C. for 2 hours protected from light. For the determination, different concentrations of drug ([…]) were added to the wells and the fluorescence values were read. The fluorescence excitation wavelength was 494 nm and emission wavelength was 516 nm. FLIPR instrument data, EC50 was derived from the formula Y=Bottom+(Top−Bottom)/(1+(EC50/X)^HillSlope).

healthy mice = assay: Acute Toxicity Study (MTD) by gavage in healthy mice; format: in vivo
[2] = as above; format: in vivo; details: mouse, in vivo, po; mice, 600 mg/kg by gavage, 5 consecutive days; read-out: LD50
[3] = cited from earlier work
[4] = inhibition of TCA uptake by BSEP vesicles, read-out: Potential inhibitory side effects BSEP (IC50)

Chain of BSEP bile salt transporter (O95342 whole entry): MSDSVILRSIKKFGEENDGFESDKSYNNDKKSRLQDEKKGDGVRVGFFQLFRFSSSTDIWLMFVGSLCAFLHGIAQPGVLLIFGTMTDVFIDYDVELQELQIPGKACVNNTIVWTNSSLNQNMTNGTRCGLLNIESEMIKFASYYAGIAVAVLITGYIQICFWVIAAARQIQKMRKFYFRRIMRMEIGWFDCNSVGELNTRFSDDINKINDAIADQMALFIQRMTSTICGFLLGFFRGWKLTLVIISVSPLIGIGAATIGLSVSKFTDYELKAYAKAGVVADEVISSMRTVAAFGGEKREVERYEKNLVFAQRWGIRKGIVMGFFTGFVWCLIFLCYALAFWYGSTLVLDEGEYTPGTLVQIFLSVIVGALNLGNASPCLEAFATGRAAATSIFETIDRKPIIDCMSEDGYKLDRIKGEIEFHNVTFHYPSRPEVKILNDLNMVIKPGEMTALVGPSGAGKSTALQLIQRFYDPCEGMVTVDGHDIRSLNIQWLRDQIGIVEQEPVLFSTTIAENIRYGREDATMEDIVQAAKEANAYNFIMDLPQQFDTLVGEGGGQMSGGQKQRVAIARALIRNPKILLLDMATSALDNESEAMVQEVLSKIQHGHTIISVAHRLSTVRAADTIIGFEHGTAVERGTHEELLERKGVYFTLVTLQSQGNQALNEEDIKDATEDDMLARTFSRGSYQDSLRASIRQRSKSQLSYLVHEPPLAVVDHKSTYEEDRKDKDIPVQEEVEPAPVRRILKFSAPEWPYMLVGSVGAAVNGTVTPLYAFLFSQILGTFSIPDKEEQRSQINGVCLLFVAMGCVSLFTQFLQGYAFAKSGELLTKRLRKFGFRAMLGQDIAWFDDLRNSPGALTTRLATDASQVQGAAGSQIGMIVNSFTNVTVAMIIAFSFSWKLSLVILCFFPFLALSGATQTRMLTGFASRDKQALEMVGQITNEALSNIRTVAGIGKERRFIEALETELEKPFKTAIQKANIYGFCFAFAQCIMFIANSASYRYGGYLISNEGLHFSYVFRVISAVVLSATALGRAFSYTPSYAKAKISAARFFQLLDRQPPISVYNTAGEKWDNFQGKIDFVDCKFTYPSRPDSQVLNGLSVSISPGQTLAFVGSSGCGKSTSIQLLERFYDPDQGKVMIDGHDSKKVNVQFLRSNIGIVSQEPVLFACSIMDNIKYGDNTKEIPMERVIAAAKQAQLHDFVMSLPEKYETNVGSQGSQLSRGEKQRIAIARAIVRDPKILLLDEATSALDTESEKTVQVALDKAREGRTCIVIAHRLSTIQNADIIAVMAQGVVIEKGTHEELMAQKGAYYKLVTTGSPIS
T1 sequence (O14842 whole entry): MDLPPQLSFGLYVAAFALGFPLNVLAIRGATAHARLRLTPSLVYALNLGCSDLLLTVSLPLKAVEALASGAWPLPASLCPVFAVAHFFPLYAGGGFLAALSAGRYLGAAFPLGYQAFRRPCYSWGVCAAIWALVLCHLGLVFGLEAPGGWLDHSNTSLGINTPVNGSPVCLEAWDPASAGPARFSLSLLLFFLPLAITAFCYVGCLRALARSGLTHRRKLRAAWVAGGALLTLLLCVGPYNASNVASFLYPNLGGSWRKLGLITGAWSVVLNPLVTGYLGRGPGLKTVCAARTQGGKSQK
Chain of hERG (Q12809 whole entry): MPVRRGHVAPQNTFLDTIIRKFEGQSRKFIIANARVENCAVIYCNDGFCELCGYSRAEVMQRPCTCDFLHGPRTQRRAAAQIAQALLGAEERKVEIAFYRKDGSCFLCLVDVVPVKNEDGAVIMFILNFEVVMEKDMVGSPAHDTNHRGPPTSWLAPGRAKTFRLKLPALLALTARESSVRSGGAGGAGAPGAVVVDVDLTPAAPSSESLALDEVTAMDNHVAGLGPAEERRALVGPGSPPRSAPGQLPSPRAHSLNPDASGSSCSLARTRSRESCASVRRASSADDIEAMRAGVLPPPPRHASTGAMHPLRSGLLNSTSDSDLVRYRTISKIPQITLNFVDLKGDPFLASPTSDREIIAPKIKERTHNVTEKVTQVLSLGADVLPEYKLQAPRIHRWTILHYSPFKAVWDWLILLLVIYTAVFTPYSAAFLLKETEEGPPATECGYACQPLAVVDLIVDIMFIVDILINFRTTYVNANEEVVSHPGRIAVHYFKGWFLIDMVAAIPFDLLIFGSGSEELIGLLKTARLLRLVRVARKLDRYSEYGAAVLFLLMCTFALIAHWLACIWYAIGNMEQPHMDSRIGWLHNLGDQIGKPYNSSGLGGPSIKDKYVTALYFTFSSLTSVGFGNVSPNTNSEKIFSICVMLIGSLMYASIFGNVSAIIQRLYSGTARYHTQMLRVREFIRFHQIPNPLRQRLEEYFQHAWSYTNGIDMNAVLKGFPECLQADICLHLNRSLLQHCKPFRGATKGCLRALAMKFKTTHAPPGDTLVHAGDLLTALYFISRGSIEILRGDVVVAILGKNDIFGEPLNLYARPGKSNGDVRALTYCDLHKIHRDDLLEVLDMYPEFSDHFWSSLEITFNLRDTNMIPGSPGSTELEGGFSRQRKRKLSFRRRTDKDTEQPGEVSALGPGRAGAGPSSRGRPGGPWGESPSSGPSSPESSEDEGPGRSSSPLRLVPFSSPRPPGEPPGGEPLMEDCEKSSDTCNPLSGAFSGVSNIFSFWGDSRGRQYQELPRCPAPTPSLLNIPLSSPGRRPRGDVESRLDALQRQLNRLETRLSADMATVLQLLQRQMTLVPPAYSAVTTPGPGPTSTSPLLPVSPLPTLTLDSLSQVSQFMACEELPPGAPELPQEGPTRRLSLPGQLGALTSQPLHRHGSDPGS

Structure (SMILES)	IC50 [1, 4]	IC50 ([1]; read-out: BSEP)	IC50 (hERG)	EC50 (GPR40; GPR40 agonist activity range (EC50), CHO-K1/GPR40 cells, read-out: GPR40 activity)	EC50 (GPR40; Table 4, read-out: GPR40 Activity (hEC50))	EC50 (GPR40; read-out: GPR40 activity (EC50))	overall / acute toxicity (healthy mice; MTD high dose 600 mg/kg/day, mice, 600 mg/kg/day)	abnormalities in body weight and external and internal observations (healthy mice; during the dosing and 5-day recovery period, 600 mg/kg)	autopsy results (heart, liver, lung, kidney, intestine) (healthy mice; mice, 600 mg/kg)	survival rate of the mice after administration (healthy mice; mice, 600 mg/kg by gavage, 5 days)	LD50 at 5 days [2]	Ames assay result (Ames assay)	risk of causing hypoglycaemia ([3]; 50 mg once daily, versus control sulphonylureas)	hepatotoxicity ([3]; clinical studies terminated in 2013)	effect on insulin secretion ([3]; when blood glucose levels are normal)
CC(C)(C)OC(=O)Nc1cc(COc2ccc3c(c2)OC[C@H]3CC(=O)O)c2c(c1)OCO2 [IIb-43]	66.8 µM	> 25 µM	> 30 µM	< 0.01 µM	0.0068 µM	< 0.01 µM	low and very low	no abnormalities	did not reveal any abnormal changes; also recorded: did not reveal any abnormalities	100%	> 600 mg/kg	no relevant side effects			
Cc1cc(OCCCS(C)(=O)=O)cc(C)c1-c1cccc(COc2ccc3c(c2)OC[C@H]3CC(=O)O)c1 [Ref-1]	7.1 µM												significantly lower than that of the control sulphonylureas	problems with hepatotoxicity	no effect
